Laboratory results published in patent publication US11883387B2, “PqsR inverse agonists” (HELMHOLTZ-ZENTRUM FÜR INFEKTIONSFORSCHUNG GMBH, priority 2018, dated 2024).

Legend:
[1] = Kinetic Turbidimetric Aqueous Solubility at room temperature for 5 min; type: physicochemical; conditions: PBS buffer, kinetic from dmso stock, 2% DMSO
Method: Kinetic Turbidimetric Aqueous Solubility at room temperature for 5 min. Test compound was diluted in PBS buffer to give a range of concentrations (typically 0.4, 2, 4, 20, 40, 100, and 200 μM, final DMSO concentration 2%) and incubated at room temperature for 5 min. Absorbance was measured at a wavelength of 620 nm and the solubility was estimated from the concentration of test compound that produces an increase in absorbance above the vehicle control (i.e., […]). Data was analyzed by fitting a four parameter sigmoidal function to the measured and normalized absorbances and AUC calculation providing access to Log S (decadic logarithm of the solubility).

[2] = molecular target: PqsR (Pseudomonas aeruginosa, UniProt Q9I4X0); test: E. coli based β-galactosidase reporter gene assay (PqsR inverse agonistic activity); type: cell-based; set-up: expressed in transfected cells; host or cells: Escherichia coli DH5α
In short: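 E. coli DH5α carrying pEAL08-2 (tac-driven pqsR with pqsA-lacZ) was grown to OD600 0.2 and incubated with 0.001–10 μM compound plus 50 nM PQS for 2.5 h at 37 °C. β-Galactosidase activity was measured by ONPG conversion in permeabilized cells and normalized between the no-PQS and solvent controls. IC50 came from concentration variation.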

[3] = test system: P. aeruginosa pyocyanin production; test: Pyocyanin assay; type: cell-based, P. aeruginosa PA14; conditions: Pseudomonas aeruginosa, PA14, 16 h, read-out: IC50-value towards pyocyanin production, PA14 in PPGAS medium, 16 h
Method: Inhibition of P. aeruginosa pyocyanin production by compounds was determined photometrically as described before.[20] In short, an overnight culture of PA14 in PPGAS medium was washed, diluted in medium to a start OD600 of 0.02, and incubated for 16 h (37° C., 200 rpm, relative humidity 75%) in the presence of test compounds. Then, cultures were extracted with chloroform and re-extracted with 0.2 M HCl. Protonated red colored pyocyanin was determined by measuring OD520 and normalizing to OD600.

Sequence of PqsR (Q9I4X0 whole entry): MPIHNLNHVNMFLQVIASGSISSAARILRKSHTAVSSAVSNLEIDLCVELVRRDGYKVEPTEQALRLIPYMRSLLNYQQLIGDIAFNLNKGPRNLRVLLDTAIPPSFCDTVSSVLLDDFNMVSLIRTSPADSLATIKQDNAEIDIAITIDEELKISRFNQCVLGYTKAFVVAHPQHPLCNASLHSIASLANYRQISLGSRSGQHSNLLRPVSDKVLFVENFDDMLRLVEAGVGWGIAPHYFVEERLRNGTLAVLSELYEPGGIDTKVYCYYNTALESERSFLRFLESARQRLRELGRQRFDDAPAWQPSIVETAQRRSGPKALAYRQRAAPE

Compound	solubility at 5 min [1] [µM]	IC50 [2] [nM]	IC50 [3] [nM]
FC(F)(F)c1cc(NCc2cn(-c3ccc(Oc4cccnc4)c(Cl)c3)nn2)ccn1 [Compound 031, N-((1-(3-Chloro-4-(pyridin-3-yloxy)phenyl)-1H-1,2,3-triazol-4-yl)methyl)-2-(trifluoromethyl)pyridin-4-amine]	> 25		
FC(F)(F)c1cc(NCc2cn(-c3ccc(Oc4cccnc4)cc3)nn2)ccn1 [Compound 033, N-((1-(4-(Pyridin-3-yloxy)phenyl)-1H-1,2,3-triazol-4-yl)methyl)-2-(trifluoromethyl)pyridin-4-amine]	> 25	≤ 50	
CC(C)Oc1ccc(-n2cc(CNc3ccnc(C(F)(F)F)c3)nn2)cc1 [Compound 035, N-((1-(4-Isopropoxyphenyl)-1H-1,2,3-triazol-4-yl)methyl)-2-(trifluoromethyl)pyridin-4-amine]	≥ 100	≤ 50	
CSc1ccc(-n2cc(CNc3ccnc(C(F)(F)F)c3)nn2)cc1Cl [Compound 038, N-((1-(3-Chloro-4-(methylthio)phenyl)-1H-1,2,3-triazol-4-yl)methyl)-2-(trifluoromethyl)pyridin-4-amine]	> 25	≤ 50	
FC(F)(F)c1cc(NCc2cn(-c3ccc(-n4ccc5ccncc54)cc3)nn2)ccn1 [Compound 043, N-((1-(4-(1H-pyrrolo[2,3-c]pyridin-1-yl)phenyl)-1H-1,2,3-triazol-4-yl)methyl)-2-(trifluoromethyl)pyridin-4-amine]	> 25	≤ 50	
FC(F)(F)c1cc(NCc2cn(-c3ccc(-n4ccc5cccnc54)cc3)nn2)ccn1 [Compound 044, N-((1-(4-(1H-pyrrolo[2,3-b]pyridin-1-yl)phenyl)-1H-1,2,3-triazol-4-yl)methyl)-2-(trifluoromethyl)pyridin-4-amine]	> 10	≤ 50	
FC(F)(F)c1cc(SCc2cn(-c3cccc(Cl)c3)nn2)ccn1 [Compound 056, 4-(((1-(3-Chlorophenyl)-1H-1,2,3-triazol-4-yl)methyl)thio)-2-(trifluoromethyl)pyridine]	> 25	251 to 1000	
FC(F)(F)c1nccc(SCc2cn(-c3ccc(Oc4ccccc4)cc3)nn2)n1 [Compound 061, 4-(((1-(4-phenoxyphenyl)-1H-1,2,3-triazol-4-yl)methyl)thio)-2-(trifluoromethyl)pyrimidine]		≤ 50	251 to 1000
FC(F)(F)Oc1ccc(-n2cc(CSc3ccnc(C(F)(F)F)c3)nn2)cc1Cl [Compound 063, 4-(((1-(3-chloro-4-(trifluoromethoxy)phenyl)-1H-1,2,3-triazol-4-yl)methyl)thio)-2-(trifluoromethyl)pyridine]		51 to 250	1000 to 5000
Nc1cc(SCc2cn(-c3ccc(Oc4ccccc4)cc3)nn2)nc(C(F)(F)F)n1 [Compound 065, 6-(((1-(4-phenoxyphenyl)-1H-1,2,3-triazol-4-yl)methyl)thio)-2-(trifluoromethyl)pyrimidin-4-amine]		≤ 50	≤ 250
COc1ccc(-c2ncc(CNc3cc(N)nc(C(F)(F)F)n3)s2)cc1Cl [Compound 070, N^4-((2-(3-chloro-4-methoxyphenyl)thiazol-5-yl)methyl)-2-(trifluoromethyl)-pyrimidine-4,6-diamine]	> 25		
CC(C)Oc1ccc(-c2ncc(CNc3ccnc(C#N)c3)s2)cc1Cl [Compound 091, 4-(((2-(3-Chloro-4-isopropoxyphenyl)thiazol-5-yl)methyl)amino)picolinonitrile]		≤ 50	≤ 250
CC(C)Oc1ccc(-c2ncc(CNc3cc(Cl)nc(C(F)(F)F)c3)s2)cc1Cl [Compound 094, 2-Chloro-N-((2-(3-chloro-4-isopropoxyphenyl)thiazol-5-yl)methyl)-6-(trifluoromethyl)pyridin-4-amine]		≤ 50	≤ 250
FC(F)(F)c1cc(SCc2ccc(-c3ccc(Cl)cc3)cn2)ccn1 [Compound 111, 4-(((5-(4-Chlorophenyl)pyridin-2-yl)methyl)thio)-2-(trifluoromethyl)pyridine]	> 10		
FC(F)(F)c1cc(NCc2cn(-c3ccc(Oc4cccnc4)cc3)nn2)cc(Cl)n1 [Compound 141, 2-chloro-N-((1-(4-(pyridin-3-yloxy)phenyl)-1H-1,2,3-triazol-4-yl)methyl)-6-(trifluoromethyl)pyridin-4-amine]		≤ 50	≤ 250
Fc1ncccc1Oc1ccc(-n2cc(CNc3cc(Cl)nc(C(F)(F)F)c3)nn2)cc1 [Compound 142, 2-chloro-N-((1-(4-((2-fluoropyridin-3-yl)oxy)phenyl)-1H-1,2,3-triazol-4-yl)methyl)-6-(trifluoromethyl)pyridin-4-amine]		≤ 50	≤ 250
Fc1ccccc1Oc1ccc(-n2cc(CNc3cc(Cl)nc(C(F)(F)F)c3)nn2)cc1 [Compound 143, 2-chloro-N-((1-(4-(2-fluorophenoxy)phenyl)-1H-1,2,3-triazol-4-yl)methyl)-6-(trifluoromethyl)pyridin-4-amine]		≤ 50	≤ 250
FC(F)(F)c1cc(NCc2cn(-c3ccc(-n4ncc5ccncc54)cc3)nn2)ccn1 [Compound 148, N-((1-(4-(1H-pyrazolo[3,4-c]pyridin-1-yl)phenyl)-1H-1,2,3-triazol-4-yl)methyl)-2-(trifluoromethyl)pyridin-4-amine]		≤ 50	251 to 1000
FC(F)(F)c1cc(NCc2cn(-c3ccc(OC4COC4)c(Cl)c3)nn2)ccn1 [Compound 152, N-((1-(3-chloro-4-(oxetan-3-yloxy)phenyl)-1H-1,2,3-triazol-4-yl)methyl)-2-(trifluoromethyl)pyridin-4-amine]		≤ 50	1000 to 5000
CC(C)Oc1ccc(-n2cc(CNc3cc(C#N)nc(C(F)(F)F)c3)nn2)cc1Cl [Compound 156, 4-(((1-(3-chloro-4-isopropoxyphenyl)-1H-1,2,3-triazol-4-yl)methyl)amino)-6-(trifluoromethyl)picolinonitrile]		≤ 50	251 to 1000
CC(C)Oc1ccc(-n2cc(CNc3cc(Cl)nc(Cl)c3)nn2)cc1Cl [Compound 158, 2,6-dichloro-N-((1-(3-chloro-4-isopropoxyphenyl)-1H-1,2,3-triazol-4-yl)methyl)pyridin-4-amine]		≤ 50	≤ 250
CC(C)Oc1ccc(-n2cc(CNc3cc(C#N)nc(C#N)c3)nn2)cc1Cl [Compound 159, 4-(((1-(3-chloro-4-isopropoxyphenyl)-1H-1,2,3-triazol-4-yl)methyl)amino)pyridine-2,6-dicarbonitrile]		≤ 50	≤ 250
CC(C)Oc1ccc(-c2ncc(CNc3cc(Cl)nc(Cl)c3)s2)cc1 [Compound 162, 2,6-Dichloro-N-((2-(4-isopropoxyphenyl)thiazol-5-yl)methyl)pyridin-4-amine]		≤ 50	≤ 250
Clc1cc(SCc2nc3cc(Oc4ccccc4)ccc3[nH]2)ccn1 [Compound 178, 2-(((2-chloropyridin-4-yl)thio)methyl)-5-phenoxy-1H-benzo[d]imidazole]		51 to 250	251 to 1000
FC(F)(F)c1cc(SCc2nc3cc(Oc4ccccc4)ccc3[nH]2)cc(Cl)n1 [Compound 184, 2-(((2-chloro-6-(trifluoromethyl)pyridin-4-yl)thio)methyl)-5-phenoxy-1H-benzo[d]imidazole]		≤ 50	≤ 250
